Results as given in patent US5178789A, “Liquid detergent with stabilized enzyme” (Genencor International, Inc., priority 1991, dated 1993).
Where “and” joins values, the source holds several entries; their conditions need not be identical. Identical values can stand only once.

Columns and labels:
Format in all cases: biochemical
[1] = tested on: subtilisin; assay: Dilution assay: inhibition mixture diluted, final 1:1000, recovered subtilisin activity; details: final dilution 1:1000, 0.1M Tris pH 8.6
Procedure: The above inhibition assay is diluted 1:10 into the standard subtilisin assay buffer (0.1M Tris, pH 8.6 with 0.005% Tween). 10 μl of this diluted material is then added to a cuvette containing 10 μl of 100 mg/ml SAAPFpna and 980 μl subtilisin Assay Buffer. The rate of reaction is followed at 410 nm. The final dilution is 1:1000.

[2] = tested on: subtilisin; assay: Inhibition of subtilisin by TOM in the presence of Tide Liquid, diluted 1/500; details: for % Activity Recovered Upon Dilution / Subtilisin activity, Tide 2 mg/ml TOM: 2 mg/ml TOM in Tide Liquid, diluted 1/500
Procedure: 2 mg/ml of TOM was added to Tide™ Liquid (commercially available from The Procter & Gamble Co). The solution was diluted 1/500 into the standard subtilisin 8.6 Tris buffer. 10 μl aliquots were taken at various times to monitor subtilisin activity. Similar dilutions and assay procedures were carried out with Tide™ Liquid. 100 mg/ml SAAPFpna substrate was used.

[3] = tested on: subtilisin; assay: Inhibition assay: subtilisin incubated with inhibitor, rate of substrate hydrolysis monitored; details: about 2 mg/ml TOM; summary of Tables I and II
Procedure: The inhibitor solution is made up in a 20 mM Mops, pH 7 buffer and added to an eppendorf. 0.8 mM subtilisin is added and the mixture is allowed to incubate at room temperature for 15 minutes. After 15 minutes, 99 μl of the mixture is added to a cuvette containing 10 μl of 100 mg/ml SAAApna. The rate of hydrolysis is monitored at […]. A subtilisin control containing no inhibitor is carried out.

Substance: turkey ovomucoid [TOM]
- Dilution Assay % Recovered Activity ([1]; 0.4 mg/ml TOM): 32%
- Dilution Assay % Recovered Activity ([1]; 2 mg/ml TOM): 45%
- enzyme activity recovered immediately upon appropriate dilution ([2]; about 2 mg/ml TOM, summary of Tables I and II): > 25% and 46%
- % Activity Recovered Upon Dilution ([2]; time 0 min): 46%
- Subtilisin activity, Tide 2 mg/ml TOM ([2]; time 0 min): 1.04
- % Activity Recovered Upon Dilution ([2]; time 15 min): 38%
- Subtilisin activity, Tide 2 mg/ml TOM ([2]; time 15 min): 0.97
- % Activity Recovered Upon Dilution ([2]; time 30 min): 33%
- Subtilisin activity, Tide 2 mg/ml TOM ([2]; time 30 min): 0.965
- active enzyme bound by inhibitor [3]: at least 90%
